# Data: PubChem BioAssay (NCI)
# Several values for one entry are separate records, joined by “and”; a condition that tells them apart may be missing. Equal values may be shown once.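 Exposure lasted 48 hours, with cells grown in 96-well plates and compounds tested at five concentrations. At the GI50, growth is halved. Definition used: TGI = concentration required for complete inhibition of growth.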
# Legend:
# Assay in all cases: NCI-60 cell line screen, 48 h
# A498 renal = test system: A498 renal
# ACHN renal = test system: ACHN renal
# BT-549 breast = test system: BT-549 breast
# EKVX NSCLC = test system: EKVX NSCLC
# K-562 leukemia = test system: K-562 leukemia
# NCI-H522 lung = test system: NCI-H522 lung
# OVCAR-3 ovarian = test system: OVCAR-3 ovarian
# RXF 393 renal = test system: RXF 393 renal
# SNB-19 CNS = test system: SNB-19 CNS
# UO-31 renal = test system: UO-31 renal
SMILES,GI50 (A498 renal),TGI (A498 renal),GI50 (ACHN renal),TGI (ACHN renal),GI50 (BT-549 breast),TGI (BT-549 breast),GI50 (EKVX NSCLC),TGI (EKVX NSCLC),GI50 (K-562 leukemia),TGI (K-562 leukemia),GI50 (NCI-H522 lung),TGI (NCI-H522 lung),GI50 (OVCAR-3 ovarian),TGI (OVCAR-3 ovarian),GI50 (RXF 393 renal),TGI (RXF 393 renal),GI50 (SNB-19 CNS),TGI (SNB-19 CNS),GI50 (UO-31 renal),TGI (UO-31 renal)
COc1ccc(-c2ccc(=O)oc2C#Cc2cc(OC)c(OC)c(OC)c2)cc1O,2.36 µM,24.9 µM,0.628 µM,> 62.1 µM,0.275 µM,99.2 µM,1.38 µM,> 100 µM,0.129 µM,> 100 µM,0.172 µM,0.852 µM,0.113 µM,0.612 µM,0.0813 µM,2.39 µM,0.612 µM,> 100 µM,0.585 µM,
C[C@@H]1C[C@@H]([C@@H](CC2CC(=O)NC(=O)C2)OC(=O)CC(=O)c2ccccc2)C(=O)[C@@H](C)C1,0.177 µM,2.36 µM,0.0777 µM,> 100 µM,2.32 µM,66.7 µM,0.495 µM,,0.682 µM,> 100 µM,0.191 µM,4.32 µM,1.74 µM,> 32.7 µM,0.496 µM,25.1 µM,0.774 µM,> 100 µM,0.159 µM,5.1 µM
COc1ccc(-c2nnc3n(C)c(=O)c4ccccc4n23)cc1N,2.84 µM,54.5 µM,17.3 µM,> 100 µM,> 100 µM,> 100 µM,5.87 µM,> 100 µM,0.0395 µM,> 100 µM,0.0306 µM,42.6 µM,0.0474 µM,> 100 µM,2.59 µM,> 100 µM,3.65 µM,> 100 µM,4.96 µM,> 100 µM
CC1(C)OC2C(CO[Si](C)(C)C(C)(C)C)OC(n3c(I)c(C#C[Si](C)(C)C)c(=O)[nH]c3=O)C2O1 (stereo not given),32.2 µM,> 100 µM,12.9 µM,26.4 µM,13.2 µM,32.1 µM,59.6 µM,> 100 µM,1.61 µM,3.89 µM,1.38 µM,2.74 µM,1.81 µM,3.54 µM,2.51 µM,9.1 µM,> 100 µM,> 100 µM,2.63 µM,10.4 µM
CNCCOC(=O)/C=C1\CC[C@H]2[C@@H]([C@@H](O)C(=O)[C@@H]3[C@]2(C)CC[C@H](O)[C@]3(C)C(=O)OC)[C@H]1C,0.262 µM,2.53 µM,0.25 µM,0.785 µM,0.286 µM,1.09 µM,0.229 µM,0.539 µM,0.412 µM,2.37 µM,0.249 µM,0.813 µM,0.228 µM,0.49 µM,0.205 µM,0.579 µM,0.668 µM,1.99 µM,0.297 µM,1.1 µM
NNC(=O)CNc1cccc(Br)c1,,> 100 µM,,> 100 µM,,> 100 µM,,> 100 µM,,> 100 µM,,> 100 µM,,> 100 µM,,> 100 µM,,> 100 µM,,> 100 µM
CCN(CC)CCNc1nc(N)c(C#N)c(C#N)c1C#N,,> 10 µM,,> 10 µM,,> 10 µM,,> 10 µM,,> 10 µM,,> 10 µM,,> 10 µM,,> 10 µM,,> 10 µM,,> 10 µM
CCOC(=O)Nc1cc2c(c(N)n1)N=C(c1ccccc1)CO2,0.147 µM,6.92 µM,0.986 µM,31.7 µM,23.1 µM,> 100 µM,0.409 µM,> 46 µM,0.0336 µM,34 µM,0.268 µM,13 µM,0.0345 µM,0.109 µM,0.275 µM,32.1 µM,0.414 µM,25 µM,0.459 µM,6.53 µM
Cc1nc(N)sc1N=Nc1ccccc1Br,,43.2 µM,,> 86 µM,,46.4 µM,,76.3 µM,,> 100 µM,,30.3 µM,,> 79.9 µM,,43.6 µM,,> 69.7 µM,,60.5 µM
NC(N)=NCCCC(=O)O,,> 100 µM,,> 100 µM,,> 100 µM,,> 100 µM,,> 100 µM,,> 100 µM,,> 100 µM,,> 100 µM,,> 100 µM,,> 100 µM
CC(=O)ON1CCCC(P(=O)(OCCSC(=O)C(C)(C)C)OCCSC(=O)C(C)(C)C)C1=O (stereo not given),0.304 µM,3.49 µM,1.75 µM,30.4 µM,0.979 µM,7.24 µM,2.1 µM,49.6 µM,0.674 µM,> 100 µM,0.659 µM,20.9 µM,1.19 µM,20.5 µM,0.764 µM,7.02 µM,1.76 µM,21.9 µM,0.413 µM,11.3 µM
COC(=O)[C@]12CC[C@@H](C)[C@H](C)[C@@H]1C1=CC[C@@H]3[C@@]4(C)C[C@@H](O)[C@H](O)[C@@](C)(CO)C4=CC[C@@]3(C)[C@]1(C)CC2,19 µM,34 µM,17.7 µM,33.8 µM,16.2 µM,31.7 µM,15.9 µM,32.5 µM,17.5 µM,36.6 µM,16.2 µM,33.6 µM,18.3 µM,37.8 µM,16.9 µM,34 µM,18 µM,38.5 µM,14.6 µM,30.1 µM
CCCC(=O)Nc1cn(COC)c(C(=O)N2C[C@@H]3C[C@]34C2=CC(=O)c2[nH]cc(C)c24)n1,,18.2 µM,2.16 µM,50 µM and 6.82 µM,,24.7 µM and 21.7 µM,14.8 µM,> 5 µM and 38.2 µM,3.02 µM,50 µM and > 100 µM,,13.5 µM and 4 µM,2.98 µM,27.2 µM and 7.03 µM,2.21 µM,16.5 µM and 4.67 µM,10.7 µM,50 µM and 30.9 µM,16.9 µM,30.3 µM and 57.3 µM
Cc1c(N(C)C)ccc2c(=O)c3cccc(CC(=O)O)c3oc12,,> 100 µM,,> 100 µM,,> 100 µM,,> 100 µM,,> 100 µM,,> 100 µM,,> 100 µM,,> 100 µM,,> 69 µM,,> 100 µM
O=C(/C=C/c1ccc[nH]1)c1ccc(-n2ccc(C(F)(F)F)n2)cc1,> 100 µM,> 100 µM,> 100 µM,> 100 µM,0.425 µM,2.5 µM,> 100 µM,> 100 µM,38.6 µM,> 100 µM,4.08 µM,> 100 µM,0.764 µM,22.6 µM,3.61 µM,> 31.2 µM,> 100 µM,> 100 µM,0.56 µM,2.4 µM
